From ChEMBL document CHEMBL5728008, “Compound used as Bruton's tyrosine kinase inhibitor and preparation method and application thereof” (2020)

Target: Tyrosine-protein kinase BTK (Homo sapiens, UniProt Q06187)
Test: In Vitro Assay for the Inhibition of BTK Kinase Activity: 1: Test Principle:Mobility-Shift Assay, which is microfluidic chip technology, applies the basic concept of capillary electrophoresis to microfluidic environments. The substrate used for the experiment is a polypeptide with a fluorescent label. Under the action of enzyme in the reaction system, the substrate is transformed into a product, and the charge the substrate carries also changes accordingly. The use of the charge difference between the substrate and the product involved in Mobility-Shift Assay achieves the separating of the two, and they are tested respectively.

Tyrosine-protein kinase BTK, sequence (Q06187 whole entry): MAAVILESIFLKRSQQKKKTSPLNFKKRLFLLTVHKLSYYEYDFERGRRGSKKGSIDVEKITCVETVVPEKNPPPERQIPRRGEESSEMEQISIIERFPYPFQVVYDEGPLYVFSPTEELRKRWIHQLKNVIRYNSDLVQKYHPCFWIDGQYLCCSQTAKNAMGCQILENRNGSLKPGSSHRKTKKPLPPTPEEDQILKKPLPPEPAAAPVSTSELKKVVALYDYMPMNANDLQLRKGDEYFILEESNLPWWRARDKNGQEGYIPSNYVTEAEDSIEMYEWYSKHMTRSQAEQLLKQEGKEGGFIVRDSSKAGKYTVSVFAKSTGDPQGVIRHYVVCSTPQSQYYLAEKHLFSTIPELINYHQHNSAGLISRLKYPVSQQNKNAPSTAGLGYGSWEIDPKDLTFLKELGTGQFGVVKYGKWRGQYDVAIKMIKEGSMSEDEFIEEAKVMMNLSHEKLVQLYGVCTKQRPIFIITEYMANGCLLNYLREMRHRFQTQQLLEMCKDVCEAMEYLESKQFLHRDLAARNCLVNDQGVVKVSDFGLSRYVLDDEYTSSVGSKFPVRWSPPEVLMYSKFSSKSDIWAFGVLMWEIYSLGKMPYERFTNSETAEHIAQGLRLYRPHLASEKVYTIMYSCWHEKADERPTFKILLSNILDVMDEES

- IC50: 4.7 nM
Structure (SMILES): C=CC(=O)N1CC2CCCC2C1c1nc(-c2ccc(C(=O)Nc3ccccn3)cc2)c2c(N)nccn12 (stereo unspecified)
